Experiments:
[1] = Solubility by visual inspection; assay type: physicochemical; conditions: 10 mM PBS, molar equivalent of 250 mg/mL
naive mice = experiment: Barnes maze, spatial learning and memory; assay type: in vivo, mouse
[2] = biological target: recombinant full length PICK1 (Rattus norvegicus, UniProt Q9EP80); experiment: SEC of recombinant PICK1 incubated with mPD5; assay type: binding; conditions: PICK1 40 µM + mPD5 10 µM (4:1), Superdex200 Increase 10/300; PICK1 alone 10.9 mL
Sequence of recombinant full length PICK1 (Q9EP80 whole entry): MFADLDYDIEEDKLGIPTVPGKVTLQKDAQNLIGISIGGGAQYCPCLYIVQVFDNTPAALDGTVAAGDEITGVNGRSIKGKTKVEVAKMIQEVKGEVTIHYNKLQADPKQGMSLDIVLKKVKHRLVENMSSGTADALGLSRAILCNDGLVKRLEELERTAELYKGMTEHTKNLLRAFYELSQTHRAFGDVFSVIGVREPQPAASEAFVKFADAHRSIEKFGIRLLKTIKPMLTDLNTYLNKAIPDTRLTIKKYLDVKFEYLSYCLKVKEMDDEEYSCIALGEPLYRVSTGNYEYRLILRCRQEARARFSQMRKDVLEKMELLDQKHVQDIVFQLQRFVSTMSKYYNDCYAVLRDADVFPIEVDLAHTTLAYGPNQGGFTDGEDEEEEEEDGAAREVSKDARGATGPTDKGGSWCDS

- solubility in PBS [1]: ≥ 130 mM
- total distance moved, probe test day five (naive mice; s.c. 10 µmol/kg 60 min before maze): no difference
- total distance moved, following reversal learning (naive mice; s.c. 10 µmol/kg, probe test day nine): no difference was observed
- peak elution volume of PICK1 in presence of mPD5 [2]: two peaks at 8 mL and 9 mL
Structure (SMILES): CCCCCCCCCCCCCC(=O)N(CCOCCOCCC(=O)N[C@@H](Cc1c[nH]cn1)C(=O)N[C@@H](Cc1c[nH]c2ccccc12)C(=O)N[C@@H](CC(C)C)C(=O)N[C@@H](CCCCN)C(=O)N[C@H](C(=O)O)C(C)C)CCOCCOCCC(=O)N[C@@H](Cc1c[nH]cn1)C(=O)N[C@@H](Cc1c[nH]c2ccccc12)C(=O)N[C@@H](CC(C)C)C(=O)N[C@@H](CCCCN)C(=O)N[C@H](C(=O)O)C(C)C [mPD5, myristoyl-NPEG4-(HWLKV)2]

From article doi:10.1101/2023.03.03.530471v2 (bioRxiv, 2023)
